Assay results published in paper PMC6522510 (Nature Communications, 2019).

Experiments:
Design in all cases: species or system AML cell lines (8); Primary HTS, single concentration about 10 uM, Cell Titer Glo viability; log10 luminescence, per cent inhibition relative to cycloheximide control
Settings in all cases: 72 h, relative to cycloheximide control, log10 luminescence; inhibitor
[1] = system: ML-2
[2] = system: MOLM-13
[3] = system: CMS
[4] = system: U937
[5] = system: CHRF288-11
[6] = system: MV4-11
[7] = system: CMK
[8] = system: M07e

SMILES | ML-2 %inh [1] [%] | MOLM-13 %inh [2] [%] | CMS %inh [3] [%] | U937 %inh [4] [%] | CHRF288-11 %inh [5] [%] | MV4-11 %inh [6] [%] | CMK %inh [7] [%] | M07e %inh [8] [%]
CC(C)(O)Cn1c(=O)c(Oc2ccc(F)cc2F)cc2cnc(NC3CCOCC3)nc21 [SJ000581116-1] | 0.2616 | 1.601 | -1.939 | 1.398 | -0.4946 | 2.584 | 6.636 | 10.58
Cn1c(-c2ccncc2)c(-c2ccc(F)cc2)c2ncccc21 [SJ000581117-1] | -0.3566 | 0.427 | 0.8281 | 0.6927 | 26.1 | 3.37 | 3.59 | 6.194
CS(=O)(=O)CCc1cccc(C(=O)c2cnn(-c3ccc(F)cc3)c2N)c1 [SJ000581118-1] | 0.2726 | 3.918 | 3.108 | 3.157 | -6.13 | 2.402 | 3.205 | 5.628
Cn1cc(C2=C(c3ccccc3[N+](=O)[O-])C(=O)NC2=O)c2ccccc21 [SJ000581119-1] | 6.35 | 15.35 | 101.9 | 6.728 | 24.65 | 44.46 | 89.69 | 28.37
CCOc1ccccc1CCN=C1NC(=O)/C(=C/c2ccc3ncccc3c2)S1 [SJ000581120-1] | 18.56 | 1.703 | 5.975 | 6.277 | -1.679 | 0.5335 | 13.66 | 13.3
Cn1c(=O)c(Oc2ccc(F)cc2F)cc2cnc(N[C@H]3CCOC3)nc21 [SJ000581121-1] | 0.08921 | 1.492 | 4.412 | 1.362 | -0.8909 | 2.632 | 3.547 | 5.749
Nc1c(C(=O)c2ccccc2)cnn1-c1ccc(F)cc1 [SJ000581122-1] | 1.652 | 2.618 | -0.3703 | -0.682 | -5.198 | -1.368 | 1.79 | 10.33
N#Cc1cccc(C(=O)c2cnn(-c3ccc(F)cc3)c2N)c1 [SJ000581124-1] | 1.377 | 0.9707 | 0.5963 | 2.317 | -6.686 | -1.446 | 1.804 | 5.547
Cn1cc(C2=C(c3cn(CCN)c4ccccc34)C(=O)NC2=O)c2ccccc21 [SJ000581125-1] | 0.3075 | 2.432 | 4.695 | -0.6181 | -0.3568 | 10.77 | 4.026 | 2.044
CC(=O)N[C@@H](Cc1ccc(OP(=O)(O)O)cc1)C(=O)N[C@H]1CCC(=O)N2CCC[C@@H](C(=O)NCc3cccc4ccccc34)N2C1=O [SJ000581126-1] | -1.495 | 1.087 | 3.071 | 1.351 | 5.32 | 0.5498 | 0.6517 | 3.709
